Reference: paper PMC12126525, “Mechanism of ATP hydrolysis in the Hsp70 BiP nucleotide-binding domain” (Nature Communications, 2025)
Several values for one entry are separate records, joined by “and”; a condition that tells them apart may be missing. Identical values can stand only once. Each block holds one compound with its values, some of them ahead of it.

Target: BiP NBD (Homo sapiens, UniProt P11021)
Assay: Global kinetic fit (MCMC) of four NMR data sets (E1+E2, E1 only, E2 only, no recycling): functional cycle kinetic parameters
Assay type: biochemical
Set-up: His6 (N, cleaved yes); made in house; host or cells: E. coli BL21-(DE3)-Lemo, pET28a vector
Settings: for Kd: standard buffer
Excerpt: It comprises 5 different states that are connected by […] reaction equations of first and second order. We consider ATP hydrolysis an irreversible reaction without backreaction. The other pathways are reversible dissociation/association reactions, arbitrarily labeled 1–5. The microscopic equations (elementary reactions) for these 11 reactions are given by:1 NBD^ATPkcat→NBD^ADP⋅Pi 2 NBD^ATPkoff1⇌kon1NBD^apo+ATP 3 NBD^ADPkoff2⇌kon2NBD^apo+ADP 4 NBD^Pikoff3⇌kon3NBD^apo+Pi 5 NBD^ADP⋅Pikoff4⇌kon4NBD^ADP+Pi 6 NBD^ADP⋅Pikoff5⇌kon5NBD^Pi+ADP With the forward and backward kinetic rate constants connected by thermodynamic equilibrium dissociation constants given by7 koffi/koni=KDifori=1,…,5 For each of the 5 states, a differential equation describing the conservation of mass can be derived:8 d/dtNBD^apo=+koff1NBD^ATP+koff2NBD^ADP+koff3NBD^Pi−kon1NBD^apoATP−kon2NBD^apoADP−kon3NBD^apoPi 9 d/dt[NBD^ATP]=+kon1NBD^apoATP−koff1NBD^ATP−kcatNBD^ATP 10 d/dtNBD^ADP⋅Pi=+kcatNBD^ATP+kon4NBD^ADPPi+kon5NBD^PiADP−koff4NBD^ADP⋅Pi−koff5NBD^ADP⋅Pi 11 d/dtNBD^ADP=+koff4NBD^ADP⋅Pi+kon2NBD^apoADP−koff2NBD^ADP−kon4NBD^ADPPi 12 d/dtNBD^Pi=+koff5NBD^ADP⋅Pi+kon3NBD^apoPi−koff3NBD^Pi−kon5NBD^PiADP Furthermore, we have the total amount13 NBD^apo+NBD^ATP+NBD^ADP+NBD^ADP⋅Pi+NBD^Pi=NBD0 These equations can be used for numerical fitting of steady-state and non-steady-state experimental data.
The experimental data of the BiP NBD in-cyclo experiments were fitted using standard reaction kinetics. Free variables were the kon and koff rates for the five reversible reaction and the catalytic rate constant (kcat) for the irreversible ATP hydrolysis step (See theory section). The initial values for kcat , koff2 , koff4 and koff5 were set to the value determined experimentally with in-cyclo experiment. The initial value for koff3 was taken from the EXSY experiment and the initial range for koff1 and KD1 were taken from the literature. […] The prior distributions were defined based on the average state occupancy resolved from the in-cyclo experiment: tNBD·ADP, tNBD, tNBD·ADP·Pi and tNBD·Pi. Numerical integration of the corresponding differential equations for the reaction scheme (described in Fig. 2a) was performed using a custom Python module (Kinetic).
To fully determine all kinetic parameters, the data fitting procedure was conducted as a global fit of four independent experimental datasets: (i) the in-cyclo experiment with ATP regeneration and phosphate removal, (ii) ATP regeneration only, (iii) single batch experiments starting from pure ATP with the phosphate removal system, and (iv) single batch experiments starting from pure ATP.
Fitting of the functional cycle kinetic parameters. a-d, Global fit of the experimental data presented in the manuscript E1 +E2 (a), E1 (b), E2 (c), no recycling system (d). Data points are shown as circles NBD·ADP (blue), NBD·ADP·PI (dark blue) and NBD·ATP (red) (left) and pyruvate (grey), glucose-1-P (lavender), ATP (red) and ADP (blue) (right). The fit of the data is shown as lines in the same color as the data points. Data points and standard deviation for three independent experiments. e, Numerical stability of the global fitting of the experimental data.

[1] = Supplementary Fig 10a, time 5 min
[2] = Supplementary Fig 10a, time 11 min
[3] = Supplementary Fig 10a, time 17 min
[4] = Supplementary Fig 10a, time 23 min
[5] = Supplementary Fig 10a, time 29 min
[6] = Supplementary Fig 10a, time 35 min
[7] = Supplementary Fig 10a, time 41 min
[8] = Supplementary Fig 10a, time 47 min
[9] = Supplementary Fig 10a, time 53 min
[10] = Supplementary Fig 10a, time 59 min
[11] = Supplementary Fig 10a, time 65 min
[12] = Supplementary Fig 10a, time 71 min
[13] = Supplementary Fig 10b, time 10 min
[14] = Supplementary Fig 10b, time 16 min
[15] = Supplementary Fig 10b, time 22 min
[16] = Supplementary Fig 10b, time 28 min
[17] = Supplementary Fig 10b, time 34 min
[18] = Supplementary Fig 10b, time 40 min
[19] = Supplementary Fig 10b, time 46 min
[20] = Supplementary Fig 10b, time 52 min
[21] = Supplementary Fig 10b, time 58 min
[22] = Supplementary Fig 10b, time 64 min
[23] = Supplementary Fig 10b, time 70 min
[24] = Supplementary Fig 10c, time 5 min
[25] = Supplementary Fig 10c, time 11 min
[26] = Supplementary Fig 10c, time 17 min
[27] = Supplementary Fig 10c, time 23 min
[28] = Supplementary Fig 10c, time 29 min
[29] = Supplementary Fig 10c, time 35 min
[30] = Supplementary Fig 10c, time 41 min
[31] = Supplementary Fig 10c, time 47 min
[32] = Supplementary Fig 10c, time 53 min
[33] = Supplementary Fig 10d, time 5 min
[34] = Supplementary Fig 10d, time 11 min
[35] = Supplementary Fig 10d, time 17 min
[36] = Supplementary Fig 10d, time 23 min
[37] = Supplementary Fig 10d, time 29 min
[38] = Supplementary Fig 10d, time 35 min
[39] = Supplementary Fig 10d, time 41 min
[40] = Supplementary Fig 10d, time 47 min
[41] = Supplementary Fig 10d, time 53 min
[42] = reactions 1-3 (koff1, koff2, koff3): release from binary complex, T = 37 °C
[43] = reactions 1-3: binding to apo NBD, T = 37 °C
[44] = reactions 1-3: ligand leaving the binary complex to give apo NBD, T = 37 °C

Sequence of BiP NBD (P11021 19-406): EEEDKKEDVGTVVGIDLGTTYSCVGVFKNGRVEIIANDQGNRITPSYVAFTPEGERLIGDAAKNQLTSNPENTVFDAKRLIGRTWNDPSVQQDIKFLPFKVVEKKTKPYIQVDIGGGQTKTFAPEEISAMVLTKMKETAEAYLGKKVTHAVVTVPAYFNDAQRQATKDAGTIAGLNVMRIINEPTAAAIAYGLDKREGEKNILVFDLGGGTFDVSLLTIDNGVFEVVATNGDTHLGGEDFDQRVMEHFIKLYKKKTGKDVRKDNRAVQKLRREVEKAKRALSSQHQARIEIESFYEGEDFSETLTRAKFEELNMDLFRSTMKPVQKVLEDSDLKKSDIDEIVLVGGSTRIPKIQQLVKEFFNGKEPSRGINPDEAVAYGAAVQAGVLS

- kcat (NBD·ATP → NBD·ADP·Pi, T = 37 °C): 0.065 ± 0.013 s⁻¹ and 0.065 ± 0.01 s⁻¹
- species [1]: 4931 µM
- species [2]: 4934 µM
- species [3]: 4884 µM
- species [4]: 4899 µM
- species [5]: 4939 µM
- species [6]: 4943 µM
- species [7]: 4963 µM
- species [8]: 4978 µM
- species [9]: 5001 µM
- species [10]: 5024 µM
- species [11]: 5048 µM
- species [12]: 5079 µM
- species [13]: 5016 µM
- species [14]: 4951 µM
- species [15]: 4989 µM
- species [16]: 4949 µM
- species [17]: 5005 µM
- species [18]: 4923 µM
- species [19]: 4996 µM
- species [20]: 4916 µM
- species [21]: 4954 µM
- species [22]: 4989 µM
- species [23]: 4937 µM
- species [24]: 4151 µM
- species [25]: 3560 µM
- species [26]: 3077 µM
- species [27]: 2698 µM
- species [28]: 1801 µM
- species [29]: 1548 µM
- species [30]: 1183 µM
- species [31]: 1030 µM
- species [32]: 902 µM
- kcat fitted average (Supplementary Fig 11b, fitted): 0.065 s⁻¹
- species [33]: 4064 µM
- species [34]: 3620 µM
- species [35]: 3330 µM
- species [36]: 3106 µM
- species [37]: 2931 µM
- species [38]: 2788 µM
- species [39]: 2663 µM
- species [40]: 2548 µM
- species [41]: 2448 µM
- factor by which ATP unbinding is rarer than ATP hydrolysis (koff1 versus kcat): 5 times
- koff [42]: 0.012 ± 0.003 s⁻¹
- kon [43]: 32000 ± 9000 M⁻¹ s⁻¹
- Kd [44]: 0.38 ± 0.12 µM
SMILES: Nc1ncnc2c1ncn2[C@@H]1O[C@H](COP(=O)(O)OP(=O)(O)OP(=O)(O)O)[C@@H](O)[C@H]1O [ATP]

- species [1]: 25 µM
- species [2]: 25 µM
- species [3]: 25 µM
- species [4]: 25 µM
- species [5]: 25 µM
- species [6]: 25 µM
- species [7]: 25 µM
- species [8]: 25 µM
- species [9]: 25 µM
- species [10]: 25 µM
- species [11]: 25 µM
- species [12]: 25 µM
- species [13]: 1011 µM
- species [14]: 1602 µM
- species [15]: 2255 µM
- species [16]: 2820 µM
- species [17]: 3384 µM
- species [18]: 3735 µM
- species [19]: 4207 µM
- species [20]: 4544 µM
- species [21]: 4962 µM
- species [22]: 5335 µM
- species [23]: 5727 µM
- species [24]: 25 µM
- species [25]: 25 µM
- species [26]: 25 µM
- species [27]: 25 µM
- species [28]: 25 µM
- species [29]: 25 µM
- species [30]: 25 µM
- species [31]: 25 µM
- species [32]: 25 µM
- species [33]: 936 µM
- species [34]: 1380 µM
- species [35]: 1670 µM
- species [36]: 1894 µM
- species [37]: 2069 µM
- species [38]: 2212 µM
- species [39]: 2337 µM
- species [40]: 2452 µM
- species [41]: 2552 µM
- rate of phosphate release relative to ADP release from the ADP·Pi-bound state (koff4 versus koff5): 2.5 times
- koff [42]: 1.3 ± 0.2 s⁻¹
- kon [43]: 5000 ± 1000 M⁻¹ s⁻¹
- Kd [44]: 260 ± 20 µM
- koff (reactions 4, 5 (koff4, koff5): release from NBD·ADP·Pi, T = 37 °C): 0.047 ± 0.01 s⁻¹
- kon (reactions 4, 5: Pi binding to NBD·ADP, ADP binding to NBD·Pi, T = 37 °C): 200 ± 60 M⁻¹ s⁻¹
- Kd (reactions 4, 5: one ligand leaving NBD·ADP·Pi, the other stays bound, T = 37 °C): 235 ± 50 µM
SMILES: O=P(O)(O)O [Pi]
